Patent EP2342182B1 (H. Lundbeck A/S, priority 2008, dated 2010)

Columns and labels:
human NK3 receptor [1] = molecular target: T1, human NK3 receptor (Homo sapiens, UniProt P29371); experiment: NK3 receptor binding assay (SPA-based competition binding with 125I-NKB); details: read-out: Affinity (Ki/nM); further: competition with app 0.02 nM 125I-NKB
T1 construct: expressed in transfected cells; membranes prepared from them
T1 sequence (P29371 1-465): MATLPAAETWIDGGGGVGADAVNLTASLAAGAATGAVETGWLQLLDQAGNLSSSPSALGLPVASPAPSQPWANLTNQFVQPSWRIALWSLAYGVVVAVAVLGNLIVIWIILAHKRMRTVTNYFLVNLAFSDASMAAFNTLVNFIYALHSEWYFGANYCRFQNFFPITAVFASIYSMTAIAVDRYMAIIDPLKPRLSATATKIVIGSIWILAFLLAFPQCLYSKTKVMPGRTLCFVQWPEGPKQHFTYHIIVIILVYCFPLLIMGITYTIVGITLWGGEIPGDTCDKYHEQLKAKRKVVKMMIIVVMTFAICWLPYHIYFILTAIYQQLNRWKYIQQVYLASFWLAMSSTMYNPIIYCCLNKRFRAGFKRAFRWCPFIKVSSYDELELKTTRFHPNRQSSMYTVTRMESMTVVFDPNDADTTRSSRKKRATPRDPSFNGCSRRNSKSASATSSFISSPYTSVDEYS
Procedure: Example 12 NK3 receptor binding assay
Membranepreparation: BHK cells stably expressing the human NK3 receptor were seeded in harvesting plates in Dulbeccos MEM containing GlutaMax (862 mg/l), 1mM sodium pyruvate, 10% fetal calf serum, 1% Pen/Strep, 1 mg/ml G418 and were grown at 34 °C in a humidified atmosphere containing 10% CO2. To increase receptor expression, 10 µM trichotatin A was added to the media 24 hours before harvest of the cells at a confluency of app 90%. Prior to the harvesting, the cells were washed twice with PBS without Mg^2+ og Ca^2+ and subsequently scrapped of in 10 ml PBS pr harvesting plate. The cells suspension were centrifuged at 1500xG in three minutes before resuspension in 15 mM Tris-HCl pH 7,5 buffer containing 2 mM MgCl2; 0,3 mM EDTA and 1 mM EGTA (buffer A). The cell suspention was homogenised and subsequently centrifuged at 40000xG in 30 minutes. The membrane-pellet was resuspended in buffer A containing 250 mM sucrose, alliquoted and stored at ― 80 °C.
Affinity assay description: The assay was performed as a SPA-based competition-binding assay in a 50 mM Tris pH 7.4 assay buffer containing 120 mM NaCl, 3 mM MnCl2, 40 µg/ml bacitracin, 2 µg/ml Chymostatin, 1 µg/ml Phosphoramidon and 4 µg/ml Leupeptin. […] The assay plate was subsequently under agitation incubated for 90 min at RT. The plate was centrifugated 10 minutes at 500xG and counted in a topcounter 5 minuttes pr well.
The total binding, which comprised less than 5 % of added radioligand, was defined using assay buffer whereas the non-specific binding was defined in the presence of 1 µM osanetant. The non-specific binding constituted app 5 % of the total binding.

human NK3 receptor [2] = molecular target: T1, human NK3 receptor; experiment: NK3 receptor efficacy and potency assay (FLIPR Calcium 4); format: cell-based; details: read-out: Potency (cIC50/nM)
Procedure: Example 13 NK3 receptor efficacy and potency assay
BHK cells stably expressing the human NK3 receptor were seeded in 100 µl media in black walled clear-base 96-wells plates (Costar) aiming at a confluency of 95-100% at the day of assay. The assay was performed according to the FLIPR Calcium 4 Assay kit (Molecular Devices). At the day of the assay, the media was removed and the cells were washed once with the HBSS buffer (Hanks BSS buffer, pH 7,4 containing 20 mM Hepes) before 100 µl of a solution of the calcium assay reagent dissolved in the HBSS buffer containing 2,5 mM probinicid was added to the cells. The plates were incubated for 60 min at 34°C, 10% CO2 before use in the FLIPR for examination of fluorescence.
For efficacy and potency evaluation of compounds, these were diluted in HBSS buffer prior to test. For test of agonist activity, 25 µl of the diluted compound solution was added and the plate was analyzed for 5 minutes in the FLIPR. For test of antagonist activity, the plate was incubated for another 45 minutes before addition of 25 µl of the EC85 concentration ofNKB (app. 4 nM) as described above. The plates were subsequently analyzed for 5 minutes before the assay was terminated. The maximal increase in fluorescence over background following each ligand addition was determined.

Row | SMILES | Ki (human NK3 receptor [1]) | IC50 (human NK3 receptor [2])
1 | CC[C@H](NC(=O)c1c(C)n(C2CCCC2)c(=O)c2ccccc12)c1ccccc1 [Example 1a, 2-Cyclopentyl-3-methyl-1-oxo-1,2-dihydro-isoquinoline-4-carboxylic acid ((S)-1-phenylpropyl)-amide] | 310 nM | 570 nM
2 | CC[C@H](NC(=O)c1c(C)n(CCSC)c(=O)c2ccccc12)c1ccccc1 [Example 1q, 3-Methyl-2-(2-methylsulfanyl-ethyl)-1-oxo-1,2-dihydro-isoquinoline-4-carboxylic acid ((S)-1-phenyl-propyl)-amide] | 200 nM | 440 nM
3 | CC[C@H](NC(=O)c1c(C)n(NCC(C)C)c(=O)c2ccccc12)c1ccccc1 [Example 2d, 2-Isobutylamino-3-methyl-1-oxo-1,2-dihydro-isoquinoline-4-carboxylic acid ((S)-1-phenyl-propyl)-amide] | 46 nM | 230 nM
4 | CC[C@H](NC(=O)c1c(C)n(NCC(C)(C)C)c(=O)c2ccccc12)c1ccccc1 [Example 2e, 2-(2,2-Dimethyl-propylamino)-3-methyl-1-oxo-1,2-dihydro-isoquinoline-4-carboxylic acid ((S)-1-phenyl-propyl)-amide] | 180 nM | 580 nM
5 | Cc1c(C(=O)N[C@H](c2ccccc2)C2CC2)c2cccc(F)c2c(=O)n1NCC(C)C [Example 2j, 8-Fluoro-2-isobutylamino-3-methyl-1-oxo-1,2-dihydro-isoquinoline-4-carboxylic acid ((S)-cyclopropyl-phenyl-methyl)-amide] | 23 nM | 
6 | CCNn1c(CN2CCCC2=O)c(C(=O)N[C@H](c2cccc(F)c2)C2CC2)c2cccc(F)c2c1=O [Example 2r, 2-Ethylamino-8-fluoro-1-oxo-3-(2-oxo-pyrrolidin-1-ylmethyl)-1,2-dihydro-isoquinoline-4-carboxylic acid [(S)-cyclopropyl-(3-fluoro-phenyl)-methyl]-amide] | 6.8 nM | 
7 | O=C(N[C@H](c1cccc(F)c1)C1CC1)c1c(CN2CCCC2=O)n(CCC(F)(F)F)c(=O)c2c(F)cccc12 [Example 4l, 8-Fluoro-1-oxo-3-(2-oxo-pyrrolidin-1-ylmethyl)-2-(3,3,3-trifluoro-propyl)-1,2-dihydro-isoquinoline-4-carboxylic acid [(S)-cyclopropyl-(3-fluoro-phenyl)-methyl]-amide] | 9.3 nM | 10 nM
8 | Cc1c(C(=O)N[C@H](c2cccc(F)c2)C2CC2)c2cccc(F)c2c(=O)n1[C@@H]1CCNC1 [Example 5g, 8-Fluoro-3-methyl-1-oxo-2-(R)-1-pyrrolidin-3-yl-1,2-dihydro-isoquinoline-4-carboxylic acid [(S)-cyclopropyl-(3-fluoro-phenyl)-methyl]-amide] |  | 910 nM
9 | CCCn1c(CN2CCNCC2)c(C(=O)N[C@H](c2cccc(F)c2)C2CC2)c2cccc(F)c2c1=O [Example 6a, 8-Fluoro-1-oxo-3-piperazin-1-ylmethyl-2-propyl-1,2-dihydro-isoquinoline-4-carboxylic acid [(S)-cyclopropyl-(3-fluoro-phenyl)-methyl]-amide] | 13 nM | 7 nM
10 | CCCn1c(CN2CCNCC2)c(C(=O)N[C@H](c2cccc(F)c2)C2CCC2)c2cccc(F)c2c1=O [Example 6b, 8-Fluoro-1-oxo-3-piperazin-1-ylmethyl-2-propyl-1,2-dhydro-isoquinoline-4-carboxylic acid [(S)-cyclobutyl-(3-fluoro-phenyl)-methyl]-amide] | 6.6 nM | 18 nM
11 | CCCn1c(CN2CCCC2=O)c(C(=O)N[C@H](c2cccc(F)c2)C2CC2)c2cccc(F)c2c1=O [Example 6e, 8-Fluoro-1-oxo-3-(2-oxo-pyrrolidin-1-ylmethyl)-2-propyl-1,2-dihydro-isoquinoline-4-carboxylic acid [(S)-cyclopropyl-(3-fluoro-phenyl)-methyl]-amide] | 9.8 nM | 21 nM

Further lines, results first:

Row | Ki (human NK3 receptor [1]) | IC50 (human NK3 receptor [2]) | SMILES
12 | 12 nM | 27 nM | CCNn1c(C)c(C(=O)N[C@H](c2cccc(F)c2)C2CC2)c2cccc(F)c2c1=O [Example 2p, 2-Ethylamino-8-fluoro-3-methyl-1-oxo-1,2-dihydro-isoquinoline-4-carboxylic acid [(S)-cyclopropyl-(3-fluoro-phenyl)-methyl]-amide]
13 | 7.4 nM |  | CCCNn1c(C)c(C(=O)N[C@H](c2cccc(F)c2)C2CC2)c2cccc(F)c2c1=O [Example 2q, 8-Fluoro-3-methyl-1-oxo-2-propylamino-1,2-dihydro-isoquinoline-4-carboxylic acid [(S)-cyclopropyl-(3-fluoro-phenyl)-methyl]-amide]
14 | 76 nM | 230 nM | COCCn1c(C)c(C(=O)N[C@H](c2cccc(F)c2)C2CC2)c2cccc(F)c2c1=O [Example 4f, 8-Fluoro-2-(2-methoxy-ethyl)-3-methyl-1-oxo-1,2-dihydro-isoquinoline-4-carboxylic acid [(S)-cyclopropyl-(3-fluoro-phenyl)-methyl]-amide]
15 | 160 nM | 380 nM | Cc1c(C(=O)N[C@H](c2cccc(F)c2)C2CCC2)c2cccc(F)c2c(=O)n1CCO [Example 4p, 8-Fluoro-2-(2-hydroxy-ethyl)-3-methyl-1-oxo-1,2-dihydro-isoquinoline-4-carboxylic acid [(S)-cyclobutyl-(3-fluoro-phenyl)-methyl]-amide]
16 |  | 390 nM | Cc1c(C(=O)NC(c2cccc(F)c2)C2CCC2)c2cccc(F)c2c(=O)n1C1CCOC1 [Example 4r, 8-Fluoro-3-methyl-1-oxo-2-(S)-tetrahydro-furan-3-yl-1,2-dihydro-isoquinoline-4-carboxylic acid [(S)-cyclobutyl-(3-fluoro-phenyl)-methyl]-amide]
17 | 68 nM | 180 nM | CCOn1c(C)c(C(=O)N[C@H](c2cccc(F)c2)C2CCC2)c2cccc(F)c2c1=O [Example 4t, 2-Ethoxy-8-fluoro-3-methyl-1-oxo-1,2-dihydro-isoquinoline-4-carboxylic acid [(S)-cyclobutyl-(3-fluoro-phenyl)-methyl]-amide]
18 | 25 nM | 16 nM | Cc1c(C(=O)N[C@H](c2cccc(F)c2)C2CCC2)c2cccc(F)c2c(=O)n1C[C@H]1CCCN1 [Example 5d, 8-Fluoro-3-methyl-1-oxo-2-(R)-1pyrrolidin-2-ylmethyl-1,2-dihydro-isoquinoline-4-carboxylic acid [(S)-cyclobutyl-(3-fluoro-phenyl)-methyl]-amide]
19 | 78 nM | 130 nM | Cc1c(C(=O)N[C@H](c2cccc(F)c2)C2CC2)c2cccc(F)c2c(=O)n1C[C@@H]1CCCN1C [Example 7a, 8-Fluoro-3-methyl-2-((S)-1-methyl-pyrrolidin-2-ylmethyl)-1-oxo-1,2-dihydro-isoquinoline-4-carboxylic acid [(S)-cyclopropyl-(3-fluoro-phenyl)-methyl]-amide]
20 | 90 nM | 660 nM | Cc1c(C(=O)N[C@H](c2cccc(F)c2)C2CC2)c2cccc(F)c2c(=O)n1[C@@H]1CCN(C)C1 [Example 7i, 8-Fluoro-3-methyl-2-((R)-1-methyl-pyrrolidin-3-yl)-1-oxo-1,2-dihydro-isoquinoline-4-carboxylic acid [(S)-cyclopropyl-(3-fluoro-phenyl)-methyl]-amide]
